For the assay, the system named is P388 leukemia ip, CD2F1 mice, survival T/C. The assay can be described thus: NCI In Vivo Anticancer Drug Screen. Data for tumor model P388 Leukemia (intraperitoneal) in CD2F1 (CDF1) mice. The following applies: endpoint: median survival time, higher = longer survival. In short, it runs like this:
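Mice carrying the transplanted tumor received test compound or vehicle. Survival was recorded in each group, and the value is the treated-group measurement divided by that of the vehicle-treated control group.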

Where [1] appears, read: dose: 60.0 mg/kg/injection, schedule: Q01DX005 (ip), vehicle: saline with Tween-80.
Setting [2] is: dose: 120.0 mg/kg/injection, schedule: Q01DX005 (ip), vehicle: saline with Tween-80.
[3] abbreviates: dose: 240.0 mg/kg/injection, schedule: Q01DX005 (ip), vehicle: saline with Tween-80.
[4] abbreviates: dose: 50.0 mg/kg/injection, schedule: Q01DX009 (ip), vehicle: Klucel (hydroxypropylcellulose) (HPC).
[5] abbreviates: dose: 100.0 mg/kg/injection, schedule: Q01DX009 (ip), vehicle: Klucel (hydroxypropylcellulose) (HPC).
[6] abbreviates: dose: 200.0 mg/kg/injection, schedule: Q01DX009 (ip), vehicle: Klucel (hydroxypropylcellulose) (HPC).

Several values for one entry are separate records, joined by “and”; a condition that tells them apart may be missing. Equal entries are not always repeated. Inconclusive results and toxic doses are left out.

As for `C[C@@H]1C[C@@H]([C@H](O)CC2CC(=O)NC(=O)C2)C(=O)[C@@H](C)C1`, the T/C reads like this: (dose: 3.89 mg/kg/injection, schedule: Q01DX009 (ip), vehicle: Klucel (hydroxypropylcellulose) (HPC)) 99 % of control and 108 % of control; (dose: 6.48 mg/kg/injection, schedule: Q01DX009 (ip), vehicle: Klucel (hydroxypropylcellulose) (HPC)) 102 % of control and 104 % of control; (dose: 10.8 mg/kg/injection, schedule: Q01DX009 (ip), vehicle: Klucel (hydroxypropylcellulose) (HPC)) 104 % of control and 117 % of control; (dose: 12.5 mg/kg/injection, schedule: Q01DX009 (ip), vehicle: water) 108 % of control and 115 % of control; (dose: 18.0 mg/kg/injection, schedule: Q01DX009 (ip), vehicle: Klucel (hydroxypropylcellulose) (HPC)) 106 % of control and 94 % of control; (dose: 20.0 mg/kg/injection, schedule: Q01DX009 (ip), vehicle: water) 92 % of control. The T/C reads like this: (dose: 23.3 mg/kg/injection, schedule: Q04DX003 (ip), vehicle: Klucel (hydroxypropylcellulose) (HPC)) 102 % of control and 104 % of control; (dose: 25.0 mg/kg/injection, schedule: Q01DX009 (ip), vehicle: water) 117 % of control; (dose: 30.0 mg/kg/injection, schedule: Q01DX009 (ip), vehicle: Klucel (hydroxypropylcellulose) (HPC)) 113 % of control and 117 % of control; (dose: 30.0 mg/kg/injection, schedule: Q01DX009 (ip), vehicle: water) 95 % of control; (dose: 38.9 mg/kg/injection, schedule: Q04DX003 (ip), vehicle: Klucel (hydroxypropylcellulose) (HPC)) 111 % of control and 97 % of control; (dose: 40.0 mg/kg/injection, schedule: Q01DX009 (ip), vehicle: water) 100 % of control. Besides, the T/C is 99 % of control (dose: 50.0 mg/kg/injection, schedule: Q01DX009 (ip), vehicle: water); 104 % of control and 95 % of control (dose: 64.8 mg/kg/injection, schedule: Q04DX003 (ip), vehicle: Klucel (hydroxypropylcellulose) (HPC)); 109 % of control (dose: 80.0 mg/kg/injection, schedule: Q01DX009 (ip), vehicle: water); 110 % of control (dose: 100.0 mg/kg/injection, schedule: Q01DX001 (ip), vehicle: saline); 109 % of control (dose: 108.0 mg/kg/injection, schedule: Q04DX003 (ip), vehicle: Klucel (hydroxypropylcellulose) (HPC)); 92 % of control (dose: 120.0 mg/kg/injection, schedule: Q01DX009 (ip), vehicle: water). For the same molecule, the T/C by setting is: (dose: 125.0 mg/kg/injection, schedule: Q01DX001 (ip), vehicle: saline) 113 % of control; (dose: 150.0 mg/kg/injection, schedule: Q01DX001 (ip), vehicle: saline) 112 % of control; (dose: 175.0 mg/kg/injection, schedule: Q01DX001 (ip), vehicle: saline) 112 % of control; (dose: 180.0 mg/kg/injection, schedule: Q04DX003 (ip), vehicle: Klucel (hydroxypropylcellulose) (HPC)) 97 % of control; (dose: 200.0 mg/kg/injection, schedule: Q01DX001 (ip), vehicle: saline) 112 % of control.

As for `Nc1ncnc2c1ccn2COCCOP(=O)(O)O`, the T/C was 105 % of control (dose: 50.0 mg/kg/injection, schedule: Q01DX005 (ip), vehicle: distilled water + alcohol); 100 % of control (dose: 100.0 mg/kg/injection, schedule: Q01DX005 (ip), vehicle: distilled water + alcohol); 98 % of control (dose: 200.0 mg/kg/injection, schedule: Q01DX005 (ip), vehicle: distilled water + alcohol).

Take `CC1=NCCN=C(C)C1[N+](=O)[O-]`: the T/C (dose: 50.0 mg/kg/injection, schedule: Q01DX009 (ip), vehicle: saline) was 91 % of control and the T/C (dose: 100.0 mg/kg/injection, schedule: Q01DX009 (ip), vehicle: saline) was 87 % of control.

On to `COC(=O)c1c2csc3ccccc3n-2c(=O)c1C`, for which the T/C under setting [1] was 102 % of control, the T/C under setting [2] is 101 % of control and the T/C under setting [3] is 95 % of control.

`C(=Nc1ccc(N=Cc2ccccc2P(c2ccccc2)c2ccccc2)cc1)c1ccccc1P(c1ccccc1)c1ccccc1`: the T/C reads like this: under setting [4], 99 % of control; under setting [5], 99 % of control; under setting [6], 99 % of control.

`Cc1c(Cl)cccc1N=Cc1ccc(C=Nc2cccc(Cl)c2C)cc1`: the T/C is, setting by setting: under setting [4], 94 % of control; under setting [5], 92 % of control; under setting [6], 91 % of control.

On to `CCCC1(N2CCCC2)C(=O)NC(=O)N(CC)C1=O` (centres undefined), for which the T/C (dose: 60.0 mg/kg/injection, schedule: Q01DX005 (ip), vehicle: Klucel (hydroxypropylcellulose) (HPC)) is 108 % of control; the T/C (dose: 120.0 mg/kg/injection, schedule: Q01DX005 (ip), vehicle: Klucel (hydroxypropylcellulose) (HPC)) is 93 % of control; the T/C (dose: 240.0 mg/kg/injection, schedule: Q01DX005 (ip), vehicle: Klucel (hydroxypropylcellulose) (HPC)) was 101 % of control.

In the case of `COc1cc2c(cc1OC)C1C(=O)c3ccc4c(c3OC1CO2)CC(C(C)(O)CO)O4` (centres undefined), the T/C runs as follows: (dose: 10.0 mg/kg/injection, schedule: Q01DX005 (ip), vehicle: DMSO) 108 % of control; (dose: 20.0 mg/kg/injection, schedule: Q01DX005 (ip), vehicle: DMSO) 107 % of control.

For the molecule `COC(=O)C(F)C(N)C(=O)O` (centres undefined), the T/C is 100 % of control (dose: 12.5 mg/kg/injection, schedule: Q04DX003 (ip), vehicle: saline with Tween-80); 101 % of control (dose: 25.0 mg/kg/injection, schedule: Q04DX003 (ip), vehicle: saline with Tween-80); 99 % of control (dose: 50.0 mg/kg/injection, schedule: Q04DX003 (ip), vehicle: saline with Tween-80); 103 % of control (dose: 200.0 mg/kg/injection, schedule: Q04DX003 (ip), vehicle: saline); 90 % of control (dose: 400.0 mg/kg/injection, schedule: Q04DX003 (ip), vehicle: saline).

For `NC(=O)c1sc2ncccc2c1N`, the T/C is, setting by setting: under setting [1], 96 % of control; under setting [2], 92 % of control; under setting [3], 96 % of control.

For `CC1(C)O[C@@H]2C[C@H]3[C@@H]4CCC5=CC(=O)CC[C@]5(C)[C@@]4(F)[C@@H](O)C[C@]3(C)[C@]2(C(=O)CO)O1`, the T/C (dose: 12.5 mg/kg/injection, schedule: Q01DX009 (ip), vehicle: saline with Tween-80) is 109 % of control and the T/C (dose: 25.0 mg/kg/injection, schedule: Q01DX009 (ip), vehicle: saline with Tween-80) was 86 % of control.

In the case of `C#CC(C)OCC(C)OC(C)=O` (centres undefined), the T/C is, setting by setting: (dose: 150.0 mg/kg/injection, schedule: Q01DX009 (ip), vehicle: saline with Tween-80) 88 % of control; (dose: 225.0 mg/kg/injection, schedule: Q01DX009 (ip), vehicle: saline with Tween-80) 88 % of control.

Take `Cc1[nH]c2ccccc2c1CC[n+]1cccc(C#N)c1`: the T/C runs as follows: (dose: 3.12 mg/kg/injection, schedule: Q01DX005 (ip), vehicle: Klucel (hydroxypropylcellulose) (HPC)) 108 % of control; (dose: 6.25 mg/kg/injection, schedule: Q01DX005 (ip), vehicle: Klucel (hydroxypropylcellulose) (HPC)) 100 % of control; (dose: 12.5 mg/kg/injection, schedule: Q01DX005 (ip), vehicle: Klucel (hydroxypropylcellulose) (HPC)) 103 % of control.

Regarding `CCCN(CCC)c1nnc([N+](=O)[O-])s1`, the T/C was 104 % of control (dose: 50.0 mg/kg/injection, schedule: Q01DX001 (ip), vehicle: other); 100 % of control (dose: 100.0 mg/kg/injection, schedule: Q01DX001 (ip), vehicle: other); 104 % of control (dose: 200.0 mg/kg/injection, schedule: Q01DX001 (ip), vehicle: other).

As to `Cc1nnc2c3c4c(sc3nc(C)n12)CCCC4`, the T/C (dose: 50.0 mg/kg/injection, schedule: Q01DX005 (ip), vehicle: Klucel (hydroxypropylcellulose) (HPC)) is 94 % of control; the T/C (dose: 100.0 mg/kg/injection, schedule: Q01DX005 (ip), vehicle: Klucel (hydroxypropylcellulose) (HPC)) was 98 % of control; the T/C (dose: 200.0 mg/kg/injection, schedule: Q01DX005 (ip), vehicle: Klucel (hydroxypropylcellulose) (HPC)) was 104 % of control.

For the molecule `O=C(CNC(=O)Nc1ccc(C2=NCCN2)cc1)Nc1ccc(C2=NCCN2)cc1`, the T/C (dose: 22.0 mg/kg/injection, schedule: Q01DX009 (ip), vehicle: saline with Tween-80) was 95 % of control; the T/C (dose: 33.0 mg/kg/injection, schedule: Q01DX009 (ip), vehicle: saline with Tween-80) is 113 % of control; the T/C (dose: 75.0 mg/kg/injection, schedule: Q01DX009 (ip), vehicle: saline with Tween-80) was 154 % of control.

Consider `O=C1Nc2ccccc2C2CCCCC12` (centres undefined), for which the T/C (dose: 50.0 mg/kg/injection, schedule: Q01DX005 (ip), vehicle: saline with Tween-80) was 107 % of control; the T/C (dose: 100.0 mg/kg/injection, schedule: Q01DX005 (ip), vehicle: saline with Tween-80) is 102 % of control; the T/C (dose: 200.0 mg/kg/injection, schedule: Q01DX005 (ip), vehicle: saline with Tween-80) is 98 % of control.

The record behind these values is PubChem BioAssay AID330 (DTP/NCI, 2004).
